The term IC50 denotes the concentration that inhibits the measured activity by half.

The target in one assay is human TLR7 (Homo sapiens (Human), UniProt Q9NYK1). Put plainly: TLR7 inhibition reporter assay (HEK-Blue SEAP). In kind it is cell-based. The conditions noted are these: HEK-Blue cells overexpressing human TLR7, SEAP reporter, gardiquimod 7.5 μM. For orientation: Reporter assays use an easily measured gene product as a stand-in for the process of interest.
The next assay deals with human TLR8 (Homo sapiens (Human), UniProt Q9NR97). Description: TLR8 inhibition reporter assay (HEK-Blue SEAP).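 Also: SEAP driven by IFN-β minimal promoter carrying NF-κB and AP-1 sites, compounds dosed 0.05 nM to 50 µM for 22 h, inhibition scaled between agonist-plus-DMSO and reference-inhibitor wells.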 The conditions noted are these: read-out: TLR8 IC50; HEK-Blue cells overexpressing human TLR8, SEAP reporter, R848 15.9 μM.
In the next assay the target is human TLR9 (Homo sapiens (Human), UniProt Q9NR96). Put plainly: TLR9 inhibition reporter assay (HEK-Blue SEAP).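 Also: SEAP driven by an IFN-β minimal promoter with NF-κB and AP-1 sites, read after 22 h, compounds dosed 0.05 nM–50 µM, inhibition scaled between agonist plus DMSO and reference-inhibitor wells.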 The note with it: read-out: TLR9 IC50; HEK-Blue cells overexpressing human TLR9, SEAP reporter, ODN2006 5 nM.
Sequence of human TLR9 (Q9NR96 26-1032): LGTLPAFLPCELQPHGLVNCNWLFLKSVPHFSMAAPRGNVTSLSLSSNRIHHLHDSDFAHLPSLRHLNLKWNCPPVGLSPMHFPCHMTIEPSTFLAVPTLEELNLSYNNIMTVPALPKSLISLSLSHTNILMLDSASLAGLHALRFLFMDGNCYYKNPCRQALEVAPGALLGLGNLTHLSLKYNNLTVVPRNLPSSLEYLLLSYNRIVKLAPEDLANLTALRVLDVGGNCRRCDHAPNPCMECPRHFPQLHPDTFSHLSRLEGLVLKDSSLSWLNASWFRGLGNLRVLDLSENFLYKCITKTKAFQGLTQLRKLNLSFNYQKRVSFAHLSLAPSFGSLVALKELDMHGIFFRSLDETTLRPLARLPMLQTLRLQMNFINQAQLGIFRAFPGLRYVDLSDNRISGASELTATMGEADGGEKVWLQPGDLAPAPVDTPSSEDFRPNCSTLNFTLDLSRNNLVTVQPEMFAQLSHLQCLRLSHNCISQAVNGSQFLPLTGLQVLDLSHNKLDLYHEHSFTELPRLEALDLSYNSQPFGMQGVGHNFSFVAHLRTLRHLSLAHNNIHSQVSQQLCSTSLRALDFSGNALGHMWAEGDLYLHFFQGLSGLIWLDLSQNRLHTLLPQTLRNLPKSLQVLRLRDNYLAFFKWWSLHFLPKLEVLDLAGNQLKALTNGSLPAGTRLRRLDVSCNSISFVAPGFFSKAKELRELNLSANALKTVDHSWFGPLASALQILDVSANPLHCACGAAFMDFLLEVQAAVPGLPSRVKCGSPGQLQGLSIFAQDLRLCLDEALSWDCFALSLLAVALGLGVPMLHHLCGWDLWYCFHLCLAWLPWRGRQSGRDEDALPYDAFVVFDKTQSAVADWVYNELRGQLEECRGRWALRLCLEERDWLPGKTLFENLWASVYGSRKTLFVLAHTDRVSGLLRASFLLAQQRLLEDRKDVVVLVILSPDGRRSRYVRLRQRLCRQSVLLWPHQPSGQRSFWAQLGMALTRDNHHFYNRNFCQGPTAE

Sequence of human TLR8 (Q9NR97 27-1041): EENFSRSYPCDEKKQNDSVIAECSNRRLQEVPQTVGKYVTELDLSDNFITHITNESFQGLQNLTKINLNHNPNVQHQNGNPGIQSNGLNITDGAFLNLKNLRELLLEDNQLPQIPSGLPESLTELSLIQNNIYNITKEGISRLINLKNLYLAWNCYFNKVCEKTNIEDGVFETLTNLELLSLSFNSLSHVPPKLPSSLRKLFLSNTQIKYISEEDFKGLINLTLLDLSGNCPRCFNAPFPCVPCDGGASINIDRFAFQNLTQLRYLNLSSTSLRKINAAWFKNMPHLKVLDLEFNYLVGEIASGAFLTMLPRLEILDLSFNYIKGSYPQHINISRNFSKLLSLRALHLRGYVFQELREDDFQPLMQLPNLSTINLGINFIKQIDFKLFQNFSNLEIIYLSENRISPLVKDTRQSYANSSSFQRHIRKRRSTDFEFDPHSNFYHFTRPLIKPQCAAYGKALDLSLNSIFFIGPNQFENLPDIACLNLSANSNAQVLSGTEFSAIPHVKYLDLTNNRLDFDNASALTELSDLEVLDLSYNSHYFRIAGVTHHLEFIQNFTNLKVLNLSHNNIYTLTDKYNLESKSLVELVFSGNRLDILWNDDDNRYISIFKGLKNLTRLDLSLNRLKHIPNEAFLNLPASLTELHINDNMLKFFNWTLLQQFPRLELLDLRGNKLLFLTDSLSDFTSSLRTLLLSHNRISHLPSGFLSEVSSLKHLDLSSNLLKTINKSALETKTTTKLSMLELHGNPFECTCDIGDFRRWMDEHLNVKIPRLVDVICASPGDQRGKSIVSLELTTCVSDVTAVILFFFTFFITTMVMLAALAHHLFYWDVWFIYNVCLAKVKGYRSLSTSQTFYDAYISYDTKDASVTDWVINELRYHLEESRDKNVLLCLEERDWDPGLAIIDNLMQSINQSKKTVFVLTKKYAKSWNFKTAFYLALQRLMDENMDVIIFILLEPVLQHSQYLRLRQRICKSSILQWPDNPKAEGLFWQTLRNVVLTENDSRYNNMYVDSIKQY
Sequence of human TLR7 (Q9NYK1 27-1049): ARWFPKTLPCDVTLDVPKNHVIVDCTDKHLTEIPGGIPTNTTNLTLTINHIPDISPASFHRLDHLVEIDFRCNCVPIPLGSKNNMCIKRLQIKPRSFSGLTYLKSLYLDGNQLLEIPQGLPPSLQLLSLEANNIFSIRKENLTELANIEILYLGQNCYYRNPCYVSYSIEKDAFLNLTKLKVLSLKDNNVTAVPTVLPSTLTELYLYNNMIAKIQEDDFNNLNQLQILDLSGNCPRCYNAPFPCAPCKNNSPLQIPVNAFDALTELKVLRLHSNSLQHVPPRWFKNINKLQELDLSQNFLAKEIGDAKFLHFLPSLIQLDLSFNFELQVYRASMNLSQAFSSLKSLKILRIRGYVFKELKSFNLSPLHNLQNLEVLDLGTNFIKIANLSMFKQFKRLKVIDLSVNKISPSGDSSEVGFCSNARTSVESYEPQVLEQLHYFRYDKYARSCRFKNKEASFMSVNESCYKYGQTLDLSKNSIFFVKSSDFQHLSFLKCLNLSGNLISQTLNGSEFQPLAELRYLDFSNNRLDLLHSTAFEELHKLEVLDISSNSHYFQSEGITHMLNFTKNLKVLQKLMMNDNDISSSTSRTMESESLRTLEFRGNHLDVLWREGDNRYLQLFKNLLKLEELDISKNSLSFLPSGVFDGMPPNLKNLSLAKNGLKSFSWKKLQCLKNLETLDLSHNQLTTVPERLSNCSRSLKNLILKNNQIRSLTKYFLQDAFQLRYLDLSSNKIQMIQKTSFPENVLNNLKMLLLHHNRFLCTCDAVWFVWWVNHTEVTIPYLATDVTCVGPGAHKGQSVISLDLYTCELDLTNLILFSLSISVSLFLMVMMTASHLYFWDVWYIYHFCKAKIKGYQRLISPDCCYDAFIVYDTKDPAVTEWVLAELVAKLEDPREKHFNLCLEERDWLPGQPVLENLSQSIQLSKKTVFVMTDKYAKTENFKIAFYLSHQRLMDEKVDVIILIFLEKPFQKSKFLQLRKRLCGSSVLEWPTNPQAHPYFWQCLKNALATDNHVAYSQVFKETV

In the case of `Cc1c(-c2[nH]c3ccc(C4CCC(NCCS(C)(=O)=O)CC4)nc3c2C(C)C)cn2ncnc2c1C` (stereo not drawn) [Example 450], the values for the IC50 on human TLR7, on human TLR8 and on human TLR9 were 0.61 nM, 0.71 nM and 1190 nM, respectively.

In the case of `Cc1c(-c2[nH]c3ccc(C4CCC(NC5CCOCC5)CC4)nc3c2C(C)C)cn2ncnc2c1C` (stereo not drawn) [Example 451], the figures for the 50% inhibitory concentration (IC50) against human TLR7, at human TLR8 and at human TLR9 were 0.48 nM, 0.63 nM and 1040 nM, respectively.

As for `Cc1c(-c2[nH]c3ccc(C4CCC(NCCS(C)(=O)=O)CC4)nc3c2C(C)C)cn2ncnc2c1C` (stereo not drawn) [Example 452], the values for the IC50 against human TLR7, on human TLR8 and at human TLR9 were 2.7 nM, 4.4 nM and 3090 nM, respectively.

On to `Cc1c(-c2[nH]c3ccc(C4CCC(NC5CCOCC5)CC4)nc3c2C(C)C)cn2ncnc2c1C` (stereo not drawn) [Example 453], for which the IC50 on human TLR7 was found to be 4 nM; at human TLR8, 3.3 nM; at human TLR9 it was 1440 nM.

Turning to `Cc1c(-c2[nH]c3ccc(C4CCC(NCC(C)(C)S(C)(=O)=O)CC4)nc3c2C(C)C)cn2ncnc2c1C` (stereo not drawn) [Example 454], the IC50 at human TLR7 was 1.2 nM; on human TLR8 it was 0.68 nM; on human TLR9 it was 2390 nM.

Consider `Cc1c(-c2[nH]c3ccc(C4CCC(NCC(C)(C)S(C)(=O)=O)CC4)nc3c2C(C)C)cn2ncnc2c1C` (stereo not drawn) [Example 455], for which the IC50 against human TLR7 amounted to 14 nM; at human TLR8, 12 nM; on human TLR9, 9200 nM.

As for `Cc1c(-c2[nH]c3ccc(C4CCC(N(CC#N)CC(=O)N(C)C)CC4)nc3c2C(C)C)cn2ncnc2c1C` (stereo not drawn) [Example 456], the IC50 against human TLR7 came to 2.6 nM; at human TLR8, 8.1 nM; at human TLR9, 7730 nM.

Consider `Cc1c(-c2[nH]c3ccc(C4CCC(N(CC#N)CCS(C)(=O)=O)CC4)nc3c2C(C)C)cn2ncnc2c1C` (stereo not drawn) [Example 457], for which the IC50 at human TLR7 was determined as 0.32 nM; on human TLR8 it was 0.3 nM; on human TLR9, 622 nM.

As for `Cc1c(-c2[nH]c3ccc(C4CCC(N(CC#N)CCS(C)(=O)=O)CC4)nc3c2C(C)C)cn2ncnc2c1C` (stereo not drawn) [Example 458], the IC50 on human TLR7 was determined as 5 nM; at human TLR8 it was 10 nM; on human TLR9 it was 9840 nM.

Turning to `Cc1c(-c2[nH]c3ccc(C4CCC(N(CC#N)CC(=O)N(C)C)CC4)nc3c2C(C)C)cn2ncnc2c1C` (stereo not drawn) [Example 459], the IC50 turned out to be 6.2 nM at human TLR7, 4.3 nM at human TLR8 and 2790 nM at human TLR9.

`Cc1c(-c2[nH]c3ccc(C4CCC(N(CCO)CCS(C)(=O)=O)CC4)nc3c2C(C)C)cn2ncnc2c1C` (stereo not drawn) [Example 461]: the IC50 at human TLR7 turned out to be 2.6 nM; at human TLR8, 1.7 nM; at human TLR9 it was 8470 nM.

As to `CCN(CC(=O)N(C)C)C1CCC(c2ccc3[nH]c(-c4cn5ncnc5c(C)c4C)c(C(C)C)c3n2)CC1` (stereo not drawn) [Example 462], the IC50 on human TLR7 turned out to be 6.9 nM; at human TLR8, 8.4 nM; at human TLR9 it was 4540 nM.

Consider `Cc1c(-c2[nH]c3ccc(C4CCC(N(CCO)CC(=O)N(C)C)CC4)nc3c2C(C)C)cn2ncnc2c1C` (stereo not drawn) [Example 463], for which the IC50 on human TLR7 was found to be 7.4 nM; on human TLR8, 24 nM; at human TLR9, 16000 nM.

On to `Cc1c(-c2[nH]c3ccc(C4CCC(NCC5CCCCS5(=O)=O)CC4)nc3c2C(C)C)cn2ncnc2c1C` (stereo not drawn) [Example 464], for which the IC50 came to 0.68 nM at human TLR7, 0.85 nM on human TLR8 and 1770 nM on human TLR9.

On to `Cc1c(-c2[nH]c3ccc(C4CCC(NC5CCS(=O)(=O)C5)CC4)nc3c2C(C)C)cn2ncnc2c1C` (stereo not drawn) [Example 465], for which the figures for the IC50 on human TLR7, at human TLR8 and on human TLR9 were 1.1 nM, 1.9 nM and 5660 nM, respectively.

With `Cc1c(-c2[nH]c3ccc(C4CCC(N)CC4)nc3c2C(C)C)cn2ncnc2c1C` (stereo not drawn) [Example 466], the IC50 against human TLR7 is 59 nM; at human TLR8, 204 nM; at human TLR9, 5800 nM.

For the compound `CCN(CC(=O)N(C)C)C1CCC(c2ccc3[nH]c(-c4cn5ncnc5c(C)c4C)c(C(C)C)c3n2)CC1` (stereo not drawn) [Example 467], the IC50 turned out to be 1.2 nM at human TLR7, 3.5 nM on human TLR8 and 413 nM at human TLR9.

`Cc1c(-c2[nH]c3ccc(C4CCC(N)CC4)nc3c2C(C)C)cn2ncnc2c1C` (stereo not drawn) [Example 469]: the IC50 on human TLR7 is 0.98 nM; on human TLR8, 2.9 nM; on human TLR9, 1710 nM.

Take `Cc1c(-c2[nH]c3ccc(C4CCC(NC5CCS(=O)(=O)C5)CC4)nc3c2C(C)C)cn2ncnc2c1C` (stereo not drawn) [Example 470]: the IC50 against human TLR7 was determined as 1.3 nM; on human TLR8 it was 6 nM; on human TLR9, 7420 nM.

Take `Cc1c(-c2[nH]c3ccc(C4CCC(NCC5CCCCS5(=O)=O)CC4)nc3c2C(C)C)cn2ncnc2c1C` (stereo not drawn) [Example 471]: the IC50 at human TLR7 amounted to 2.8 nM; on human TLR8 it was 3.2 nM; at human TLR9, 4710 nM.

For `Cc1c(-c2[nH]c3ccc(C4CCC(NC5(C)COC5)CC4)nc3c2C(C)C)cn2ncnc2c1C` (stereo not drawn) [Example 472], the IC50 against human TLR7 was found to be 0.34 nM; on human TLR8, 1.1 nM; on human TLR9, 2510 nM.

On to `Cc1c(-c2[nH]c3ccc(C4CCC(NC5(C)COC5)CC4)nc3c2C(C)C)cn2ncnc2c1C` (stereo not drawn) [Example 473], for which the values for the half-inhibitory concentration (IC50) against human TLR7, at human TLR8 and on human TLR9 were 7.1 nM, 9.6 nM and 7370 nM, respectively.

On to `Cc1c(-c2[nH]c3ccc(C4CCC(NCC5(C)COC5)CC4)nc3c2C(C)C)cn2ncnc2c1C` (stereo not drawn) [Example 474], for which the IC50 was determined as 0.46 nM against human TLR7, 0.43 nM on human TLR8 and 1450 nM at human TLR9.

As for `Cc1c(-c2[nH]c3ccc(C4CCC(N(CC#N)CC5(S(C)(=O)=O)CC5)CC4)nc3c2C(C)C)cn2ncnc2c1C` (stereo not drawn) [Example 475], the IC50 came out at 1.4 nM against human TLR7, 2.2 nM on human TLR8 and 3500 nM at human TLR9.

For `Cc1c(-c2[nH]c3ccc(C4CCC(N(C)CC5(S(C)(=O)=O)CC5)CC4)nc3c2C(C)C)cn2ncnc2c1C` (stereo not drawn) [Example 476], the IC50 against human TLR7 is 0.81 nM; at human TLR8, 2.6 nM; on human TLR9 it was 9750 nM.

Take `Cc1c(-c2[nH]c3ccc(C4CCC(NCC5(C)COC5)CC4)nc3c2C(C)C)cn2ncnc2c1C` (stereo not drawn) [Example 477]: the IC50 at human TLR7 was determined as 8.3 nM; at human TLR8, 6 nM; on human TLR9, 6160 nM.

As for `Cc1c(-c2[nH]c3ccc(C4CCC(N(CC#N)CC5(S(C)(=O)=O)CC5)CC4)nc3c2C(C)C)cn2ncnc2c1C` (stereo not drawn) [Example 478], the IC50 at human TLR7 turned out to be 13 nM; on human TLR8 it was 15 nM; at human TLR9, 24500 nM.

With `Cc1c(-c2[nH]c3ccc(C4CCC(N(C)CC5(S(C)(=O)=O)CC5)CC4)nc3c2C(C)C)cn2ncnc2c1C` (stereo not drawn) [Example 479], the concentration for half-maximal inhibition (IC50) against human TLR7 amounted to 2.9 nM; on human TLR8, 10 nM; at human TLR9 it was 23700 nM.

With `CCN(CC1(S(C)(=O)=O)CC1)C1CCC(c2ccc3[nH]c(-c4cn5ncnc5c(C)c4C)c(C(C)C)c3n2)CC1` (stereo not drawn) [Example 480], the IC50 is 2 nM on human TLR7, 14 nM at human TLR8 and 11700 nM at human TLR9.

Regarding `Cc1c(-c2[nH]c3ccc(C4CCC(N(CCO)CC5(S(C)(=O)=O)CC5)CC4)nc3c2C(C)C)cn2ncnc2c1C` (stereo not drawn) [Example 481], the half-inhibitory concentration (IC50) against human TLR7 came to 0.82 nM; at human TLR8 it was 3.9 nM; at human TLR9, 13000 nM.

As for `Cc1c(-c2[nH]c3ccc(C4CCC(N(CCO)CC5(S(C)(=O)=O)CC5)CC4)nc3c2C(C)C)cn2ncnc2c1C` (stereo not drawn) [Example 482], the IC50 against human TLR7 is 96 nM; on human TLR8, 238 nM; on human TLR9 it was above 50000 nM.

(Values after patent US10544143B2, “4-azaindole compounds” (BRISTOL-MYERS SQUIBB COMPANY, priority 2017, dated 2020).)
